pIC50, pKi: −log10 of the molar value.
Key:
[1] = tested on: other serine hydrolases; test: competitive activity-based protein profiling, ex vivo after i.p. dosing; type: in vivo, mouse; conditions: 1 h
[2] = biological target: T1, FAAH (Mus musculus, UniProt O08914); test: in vivo; type: in vivo
T1 sequence (O08914 1-579): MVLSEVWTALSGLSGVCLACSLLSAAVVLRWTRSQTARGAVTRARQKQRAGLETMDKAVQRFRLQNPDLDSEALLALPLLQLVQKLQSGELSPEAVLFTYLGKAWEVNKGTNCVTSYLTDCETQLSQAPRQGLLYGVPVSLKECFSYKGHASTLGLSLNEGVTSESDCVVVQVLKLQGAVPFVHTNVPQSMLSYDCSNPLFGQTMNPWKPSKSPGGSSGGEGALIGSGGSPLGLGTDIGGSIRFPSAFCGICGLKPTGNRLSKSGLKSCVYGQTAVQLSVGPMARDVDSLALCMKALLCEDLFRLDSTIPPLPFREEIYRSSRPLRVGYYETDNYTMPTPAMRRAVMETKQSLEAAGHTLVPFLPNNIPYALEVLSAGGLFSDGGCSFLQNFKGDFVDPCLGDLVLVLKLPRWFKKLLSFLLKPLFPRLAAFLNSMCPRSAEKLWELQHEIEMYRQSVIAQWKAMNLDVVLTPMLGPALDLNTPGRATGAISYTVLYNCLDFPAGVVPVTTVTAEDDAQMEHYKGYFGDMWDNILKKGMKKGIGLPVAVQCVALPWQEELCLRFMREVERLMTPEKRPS

[3] = biological target: T2, human recombinant FAAH (Homo sapiens, UniProt O00519); test: biochemical
T2 sequence (O00519 1-579): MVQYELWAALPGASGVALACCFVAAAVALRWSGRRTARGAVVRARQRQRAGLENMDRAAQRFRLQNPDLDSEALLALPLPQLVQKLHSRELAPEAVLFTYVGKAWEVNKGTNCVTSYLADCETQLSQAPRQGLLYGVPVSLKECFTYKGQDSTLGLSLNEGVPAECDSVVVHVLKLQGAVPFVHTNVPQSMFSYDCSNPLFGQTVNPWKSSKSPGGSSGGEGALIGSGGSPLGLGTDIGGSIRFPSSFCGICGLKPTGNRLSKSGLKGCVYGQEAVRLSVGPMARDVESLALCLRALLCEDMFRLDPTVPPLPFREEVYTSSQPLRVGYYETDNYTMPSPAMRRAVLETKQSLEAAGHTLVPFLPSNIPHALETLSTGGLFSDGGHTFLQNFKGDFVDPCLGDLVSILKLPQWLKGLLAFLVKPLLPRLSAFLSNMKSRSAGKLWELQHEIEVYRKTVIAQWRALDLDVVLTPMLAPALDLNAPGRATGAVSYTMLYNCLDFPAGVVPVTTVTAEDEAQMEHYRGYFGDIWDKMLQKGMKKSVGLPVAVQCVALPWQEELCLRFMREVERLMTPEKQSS

[4] = tested on: SHR and WKY rats; test: mean arterial pressure and heart rate in anesthetized rats; type: in vivo, rat; conditions: 1 mg/kg i.v.
[5] = tested on: SHR and WKY rats; test: hemodynamic analysis with pressure-volume microcatheter; type: in vivo, rat; conditions: 1 mg/kg i.v., 20 min
[6] = tested on: SHR and WKY rats; test: plasma norepinephrine; type: in vivo, rat; conditions: 1 mg/kg i.v.
[7] = biological target: T1, FAAH; test: FAAH activity in brain and liver homogenates, drug added in vitro; type: biochemical; conditions: 100 nM added in vitro, brain and liver homogenates
[8] = biological target: T1, FAAH; type: cell-based; conditions: 100 nM
[9] = tested on: anandamide levels in hepatocytes; test: anandamide levels in hepatocytes; type: cell-based, mouse; conditions: 100 nM, dense suspension 40 mg/mL
[10] = tested on: mice with diet-induced obesity; test: intraperitoneal glucose tolerance test in mice on high-fat diet; type: in vivo, mouse; conditions: male DIO mice
[11] = tested on: [3H]anandamide uptake by cultured CCF-STTG1 astrocytoma cells; test: anandamide transport assay; conditions: concentrations up to 20 μmol/L
[12] = tested on: SHR and WKY rats; test: non-fasting blood glucose in rats; conditions: 1 mg/kg i.p.
[13] = tested on: Mouse hepatocytes; test: drug levels in hepatocyte suspensions by LC/MS/MS
[14] = biological target: T3, CB2 receptors (Rattus norvegicus, UniProt Q9QZN9); test: radioligand displacement, [3H]CP,55940, rat spleen membranes
T3 sequence (Q9QZN9 1-360): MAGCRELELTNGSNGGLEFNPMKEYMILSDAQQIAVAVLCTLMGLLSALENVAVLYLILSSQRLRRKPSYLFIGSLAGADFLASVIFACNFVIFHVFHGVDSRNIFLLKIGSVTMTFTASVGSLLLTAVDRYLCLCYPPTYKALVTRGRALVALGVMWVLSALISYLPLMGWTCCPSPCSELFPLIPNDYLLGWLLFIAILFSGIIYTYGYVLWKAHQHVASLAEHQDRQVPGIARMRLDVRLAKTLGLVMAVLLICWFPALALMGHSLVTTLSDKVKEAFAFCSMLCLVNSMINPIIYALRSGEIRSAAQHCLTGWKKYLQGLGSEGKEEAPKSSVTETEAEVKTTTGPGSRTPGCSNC

[15] = biological target: CB1 receptor (Rattus norvegicus, UniProt P20272); test: radioligand displacement, [3H]CP,55940, rat forebrain membranes
[16] = tested on: SHR; test: cardiovascular effects under ganglionic blockade; conditions: 1 mg/kg, hexamethonium + vasopressin + isoproterenol

Chain of CB1 receptor (P20272 whole entry): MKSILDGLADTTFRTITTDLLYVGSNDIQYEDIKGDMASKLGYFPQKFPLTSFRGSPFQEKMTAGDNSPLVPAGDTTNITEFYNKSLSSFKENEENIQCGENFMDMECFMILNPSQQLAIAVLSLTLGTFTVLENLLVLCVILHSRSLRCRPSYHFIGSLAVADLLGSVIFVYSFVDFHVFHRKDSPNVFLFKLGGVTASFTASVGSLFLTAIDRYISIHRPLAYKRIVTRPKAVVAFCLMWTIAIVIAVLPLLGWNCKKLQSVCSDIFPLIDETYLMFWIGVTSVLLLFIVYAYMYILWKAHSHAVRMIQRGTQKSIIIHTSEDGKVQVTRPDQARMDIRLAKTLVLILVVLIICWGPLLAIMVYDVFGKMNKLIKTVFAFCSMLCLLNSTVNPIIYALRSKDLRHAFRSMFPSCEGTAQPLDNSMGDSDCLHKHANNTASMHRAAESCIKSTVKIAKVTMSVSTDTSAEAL

O=S(=O)(F)CCCCCc1ccc(O)cc1 [AM3506, 5-(4-hydroxyphenyl)pentanesulfonyl fluoride]
activity of other serine hydrolases in brain (ABPP) ([1]; mouse brain, 0.1 mg/kg i.p.): no change | liver unidentified ~58kD protein activity (ABPP) ([1]; mouse liver, 1 mg/kg i.p.): partial inhibition | ID50, inhibition of brain FAAH activity ([2]; mouse brain, ex vivo): 0.10 mg/kg | FAAH inhibitory activity in liver ([2]; mouse liver, doses up to 1 mg/kg): devoid of substantial FAAH inhibitory activity | suppression of FAAH activity in brain ([2]; oral, 1 mg/kg, brain): 90±0.4% | suppression of hepatic FAAH activity ([2]; oral, 1 mg/kg, liver): 13±2.6% | pIC50 [3]: 7.32 | effect on HR ([4]; SHR): marked bradycardia | effect on MAP ([4]; SHR): profound and sustained decrease | effect on MAP and HR ([4]; WKY): only slight changes | cardiac contractility (ESPVR) ([5]; SHR): marked decrease | cardiac output (CO) ([5]; SHR): decreases | dP/dtmax ([5]; SHR): decreases | left ventricular end-systolic pressure (LVESP) ([5]; SHR): decreases | LVESP, dP/dtmax, TPR and CO ([5]; normotensive WKY): No changes | plasma norepinephrine after treatment ([6]; WKY, baseline 198±11, remained unaffected): 167 ± 35 pg/mL | reduction of plasma norepinephrine ([6]; anesthetized SHR, 30 min): 82±5% | plasma norepinephrine after treatment ([6]; anesthetized SHR, 30 min, […]): 53 ± 12 pg/mL | FAAH activity in tissue homogenates [7]: equally effective in blocking FAAH activity in brain and liver | FAAH activity in cells, dense hepatocyte suspension ([8]; 40 mg/mL): no measurable change | FAAH activity in cell pellet, dilute hepatocyte suspension ([8]; 30 min, 1 mg wet cell weight/mL): nearly completely blocked | anandamide levels in hepatocytes [9]: remained unchanged | effect on glucose tolerance ([10]; 1 mg/kg): did not affect glucose tolerance | ipGTT area under the curve (AUC) ([10]; 1 mg/kg i.p. 60 min before glucose, vehicle 352±28): 411 ± 35 mg·h/dL | effect on anandamide transport [11]: did not affect | non-fasting blood glucose after treatment ([12]; SHR, from 97.8±5.6): 96.8 ± 2.9 mg/dL | non-fasting blood glucose after treatment ([12]; WKY, from 114.5±5.3): 108.2 ± 4.5 mg/dL | recovery of drug from cell-free medium ([13]; 0 to 30 min, no hepatocytes): remained constant | drug level in cell pellets, dense hepatocyte suspension ([13]; 100 nM, 40 mg/mL): below threshold | drug level in medium, dense hepatocyte suspension ([13]; 100 nM, 40 mg/mL): rapidly depleted from the medium | free drug (parent ion) still present in cell-free supernatant ([13]; dilute hepatocyte suspension 1 mg/mL, 100 nM, 10 min, % of drug added at 0 min): 50–55% | pKi [14]: 6.72 | pKi [15]: 5.24 | reduction of the bradycardia elicited by AM3506 under ganglionic blockade [16]: 74.0±7.7% | reduction of the hypotension elicited by AM3506 under ganglionic blockade [16]: 89.6±3.6%

Reference: PMC3003779 (Chemistry & biology, 2010)
